From patent US20260240844A1, “INHIBITORS OF CHD1L AND USES THEREOF” (The Regents of the University of Colorado, a body corporate, priority 2023, published 2026)
Read-outs that look alike come from different tables or passages of the source.

How the values were obtained:
[1] = tested on: Colo678 cells; assay: Colo678 cell viability, combination with chemotherapy; format: cell-based; conditions: Colo678 cells
[2] = tested on: HCT116 Parental cells; assay: HCT116 Parental cell viability, combination with chemotherapy; format: cell-based; conditions: HCT116 cells
[3] = tested on: SW620 Parental cells; assay: SW620 Parental cell viability, combination with chemotherapy; format: cell-based; conditions: SW620 cells
[4] = tested on: MiaPaca2 cells; assay: MiaPaca2 cell viability, combination with chemotherapy; format: cell-based; conditions: MiaPaca2 cells
Text: The cell viability assays and Bliss synergy analyses are as described above in Examples 1-9 and 11-12.

[5] = tested on: AIF in SUM149PT cells; assay: AIF immunofluorescence in SUM149PT (SUM149) cells; format: cell-based; conditions: SUM149 cells, 4 μM
Text: CHD1Li-mediated PAR translocation to the cytoplasm activates PARthanatos as a cell death mechanism. Parthanatos is a form a programmed cell death different from apoptosis and known to be mediated by PARP1 overactivation. The unique events occurring during parthanatos are: PARP1 rapid activation, accumulation of PAR and nuclear translocation of apoptosis inducing factor (AIF). Without being bound by any particular theory, accumulation of PAR in the cytoplasm caused by CHD1Li can also mediate parthanatos. To better understand the link between PAR translocation to the cytoplasm and cell death, immunofluorescence to measure the activation of caspase-3 and the subcellular localization of AIF after treatment with SOC drugs and Compound 6 in SUM49PT cells was used. […] Without being bound by any particular theory, this might be caused by the mitochondrial outer membrane permeabilization, which triggers release of mitochondrial proteins like AIF or cytochrome c, activating caspase-3 by its cleavage and leading to apoptosis. […] Moreover, when combining CHD1L inhibition with SOC drugs, the cell death mechanism shifts from apoptosis to parthanatos, evidenced by a significant increase in AIF nuclear translocation and decrease in activation of caspase-3 (FIG. 25D-E).
(§1) The ability of Compounds 12, 15 and 16 to localize AIF was tested in SUM149 (breast cancer) and MDA-MB-231 (TNBC) cell lines. A comparison of the relative distribution of AIF in nuclei (a) versus cytoplasm (b) in SUM149 cells and nuclei (c) versus cytoplasm (d) in MDA-MB-231 cells in the presence of 4 μM Compounds 12, 15 and 16 are shown in FIG. 28. […] Similarly, AIF concentration in the cytoplasm of MDA-MB-231 cells decreased by about 0.5 after administration with Compound 15. After treatment with Compound 16, the relative concentration of AIF in the nuclei of SUM149 cells increased by about 0.5-fold, and the concentration of AIF in the cytoplasm decreased by about 0.4-fold. In MDA-MB-231 cells, the relative concentration of AIF in the cytoplasm decreased by about 0.5-fold, while the concentration of AIF increased in the nuclei by about 0.1-fold.

[6] = tested on: AIF in MDA-MB-231 cells; assay: AIF localization in MDA-MB-231 cells; format: cell-based; conditions: 4 μM
Protocol: as §1

[7] = tested on: Colo679 cells; assay: DDR biomarkers (pATM, RAD51, 53BP1, γ-H2AX) in Colo679 cells; format: cell-based; conditions: 4 μM
Text: (§2) Etoposide was used as a control to show upregulation of DDR pathway biomarkers.

[8] = tested on: SUM149 and MDA-MB-231 cells; assay: DDR biomarkers in breast cancer cells; format: cell-based; conditions: 4 μM
Text: as §2

[9] = tested on: SW948 tumor organoids; assay: cells
Protocol: ATM is an important protein involved in the initial stages of the DNA damage response. […] ATM mutations are important markers being developed to identify metastatic CRC (mCRC) patients that may be sensitive to DNA damaging chemotherapy.
Synergy was assessed using the Bliss model.

[10] = tested on: SW620 CRC cells cultured as tumor organoids; assay: Viability of isolated EMT phenotype SW620 tumor organoids; format: cell-based; conditions: SW620 E, E/M, 72 h, combined with Compound 6
Protocol: FIG. 5A provides graphs showing isolated quasi EMT SW620 CRC cells E (red), E/M (yellow), and M (green) were cultured as tumor organoids and treated with SN38 combined with Compound 6 over 72 h as indicated. […].
CHD1L also regulates DNA repair via CHD1L/TCF-driven EMT by upregulating ZEB1 in CRC. ZEB1 promotes mesenchymal cell survival by upregulating the DDR. CHD1Li may sensitize isolated quasi EMT phenotypes by inhibiting EMT and DNA repair. To test this, combination studies with Compound 6 and chemotherapy measuring the viability of isolated EMT dual-reporter quasi-E, -E/M, and -M SW620 (HR-proficient) cells and HCT116 (HR-deficient) cells cultured as tumor organoids were tested. […]. […] […]. Taken together, CHD1Li synergized with chemotherapy and targeted therapy to overcome EMT-mediated drug resistance in CRC.

[11] = tested on: SW620 tumor organoids; conditions: 72 h; for IC50: read-out: IC50 SN38
[12] = SW620 tumor organoids, + Compound 6.11 2.75 μM

SMILES | calculated mean synergy score ([1]; 72 h, combined with SN-38) | decrease in AIF in the cytoplasm [5] | increase in AIF in the nucleus [5] | increase in AIF in the nuclei [6] | amount of 53BP1 [7] | amount of pATM [7] | γ-H2AX concentrations [7] | amounts of γ-H2AX and 53BP1 [8] | other results
Cc1cc(Nc2ccc(NC(=O)c3cc(Br)c[nH]3)cc2)nc(N2CCCC2)n1 [Compound 12, 4-bromo-N-(4-((6-methyl-2-(pyrrolidin-1-yl)pyrimidin-4-yl)amino)phenyl)-1H-pyrrole-2-carboxamide] | about 26 | decrease in AIF in the cytoplasm | ~1 fold | localized in both the nuclei and remained in the cytoplasm | decrease the amount of 53BP1 | increased the amount of pATM | decreased | overall decreases in the amounts of γ-H2AX and 53BP1 | calculated mean synergy score ([2]; 72 h, combined with SN-38): about 20; calculated mean synergy score ([2]; combined with 5-FU): about 19; calculated mean synergy score ([3]; 72 h, combined with SN-38): about 53; calculated mean synergy score ([3]; combined with 5-FU): about 39; calculated mean synergy score ([4]; combined with 5-FU): about 57; calculated mean synergy score ([4]; combined with SN-38): about 18; amount of RAD51 [7]: decrease in RAD51
Cc1cc(Nc2ccc(NC(=O)c3cnc(Br)s3)cc2)nc(N2CCCC2)n1 [Compound 14, 2-bromo-N-(4-((6-methyl-2-(pyrrolidin-1-yl)pyrimidin-4-yl)amino)phenyl)thiazole-5-carboxamide] | about 57 |  |  |  | decrease the amount of 53BP1 | increased the amount of pATM | decreased | overall decreases in the amounts of γ-H2AX and 53BP1 | calculated mean synergy score ([1]; combined with 5-FU): about 26
Cc1cc(Nc2ccc(NC(=O)Cc3c[nH]c4c(Cl)cccc34)cc2)nc(N2CCCC2)n1 [Compound 16, 2-(7-chloro-1H-indol-3-yl)-N-(4-((6-methyl-2-(pyrrolidin-1-yl)pyrimidin-4-yl)amino)phenyl)acetamide] | about 26 | about 0.4 fold | about 0.5 fold | about 0.1 fold | decrease the amount of 53BP1 | increased the amount of pATM | decreased | overall decreases in the amounts of γ-H2AX and 53BP1 | decrease in AIF in the cytoplasm [6]: about 0.5 fold
CCc1c2c(nc3ccc(O)cc13)-c1cc3c(c(=O)n1C2)COC(=O)[C@]3(O)CC [SN-38] |  |  |  |  |  |  |  |  | increase in potency of the chemotherapy ([9]; SW948 tumor organoids, combined with Compound 6): 1000 fold; improvement of cytotoxic potency ([9]; SW948 tumor organoids, combined with Compound 6.11): 1,000 fold; IC50 ([9]; read-out: IC50 SN38, SW948 tumor organoids, SN38 alone): 3.16 µM; IC50 ([9]; read-out: IC50 SN38, SW948 tumor organoids, combined with Compound 6.11): 0.0032 µM; IC50 ([9]; read-out: IC50 SN-38, SW948 tumor organoids, combined with Compound 6): ~0.003 µM; IC50 ([9]; read-out: IC50 of chemotherapy alone, SW948 chemo resistant tumor organoids): ~3 µM; increase of SN38 cytotoxic potency [10]: hundreds-of-fold to thousands-of-fold; increase in cytotoxic potency compared to drug alone [11, 12]: ~ 600 fold; IC50 ([11]; SW620 (ATM wt) tumor organoids, SN38 alone): ~0.6 µM; IC50 [11, 12]: ~0.001 µM
